Among the data in paper PMC4469266 (Bioorganic & medicinal chemistry letters, 2015) are Ki values, retold here.

The target in this assay is dopamine D1 receptor (Rattus norvegicus, UniProt P18901). The assay is described as follows: competition autoradiography with 3H-SCH […] in rat brain slices.
Sequence of dopamine D1 receptor (P18901 whole entry): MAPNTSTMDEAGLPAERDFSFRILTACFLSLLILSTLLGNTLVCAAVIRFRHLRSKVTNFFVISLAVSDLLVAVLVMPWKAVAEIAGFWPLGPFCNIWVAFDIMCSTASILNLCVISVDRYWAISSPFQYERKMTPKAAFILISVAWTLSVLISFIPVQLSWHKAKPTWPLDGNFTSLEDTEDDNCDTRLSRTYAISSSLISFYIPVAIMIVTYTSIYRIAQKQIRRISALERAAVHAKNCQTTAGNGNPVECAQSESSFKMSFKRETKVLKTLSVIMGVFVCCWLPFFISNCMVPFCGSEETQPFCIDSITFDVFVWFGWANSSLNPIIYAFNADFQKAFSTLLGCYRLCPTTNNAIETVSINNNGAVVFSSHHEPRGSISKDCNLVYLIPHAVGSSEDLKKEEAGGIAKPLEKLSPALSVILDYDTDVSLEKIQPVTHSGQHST

Broadly, the Ki is a measure of affinity in units of concentration, obtained from inhibition or displacement. A higher Ki goes with weaker binding. As for `CN1CCc2cc(Cl)c(O)cc2C(c2cccc(NC[C@H](F)[C@@H](O)[C@H](O)[C@H](O)CO)c2)C1` (stereo partly drawn) [compound 7, 7-chloro-8-hydroxy-3-methyl-l-(3’-fluorodeoxyglucaminophenyl)-2,3,4,5-tetrahydro-lH-3-benzazepine], the Ki is 19.5 nM.
